Reference: BigSolDB 2.1

Nc1cc(Cl)ccc1C(=O)O
Conditions	solubility (mole fraction)
in 1,4-dioxane, 283.15 K	0.0158
in 1,4-dioxane, 285.65 K	0.0173
in 1,4-dioxane, 288.15 K	0.0191
in 1,4-dioxane, 290.65 K	0.0209
in 1,4-dioxane, 293.15 K	0.0228
in 1,4-dioxane, 295.65 K	0.0248
in 1,4-dioxane, 298.15 K	0.0271
in 1,4-dioxane, 300.65 K	0.0295
in 1,4-dioxane, 303.15 K	0.032
in 1,4-dioxane, 305.65 K	0.0348
in 1,4-dioxane, 308.15 K	0.0375
in 1,4-dioxane, 310.65 K	0.0405
in 1,4-dioxane, 313.15 K	0.0436
in NMP, 278.15 K	0.0323
in NMP, 280.65 K	0.0338
in NMP, 283.15 K	0.0354
in NMP, 285.65 K	0.037
in NMP, 288.15 K	0.0388
in NMP, 290.65 K	0.0406
in NMP, 293.15 K	0.0425
in NMP, 295.65 K	0.0445
in NMP, 298.15 K	0.0465
in NMP, 300.65 K	0.0487
in NMP, 305.65 K	0.0531
in NMP, 308.15 K	0.0556
in NMP, 310.65 K	0.0581
in NMP, 313.15 K	0.0607
in acetone, 278.15 K	0.0159
in acetone, 280.65 K	0.0174
in acetone, 283.15 K	0.0189
in acetone, 285.65 K	0.0207
in acetone, 288.15 K	0.0226
in acetone, 290.65 K	0.0243
in acetone, 293.15 K	0.0261
in acetone, 295.65 K	0.0283
in acetone, 298.15 K	0.0307
in acetone, 300.65 K	0.0328
in acetone, 303.15 K	0.0351
in acetone, 305.65 K	0.0378
in acetone, 308.15 K	0.0404
in acetone, 310.65 K	0.0433
in acetone, 313.15 K	0.0463
in acetonitrile, 278.15 K	0.00138
in acetonitrile, 280.65 K	0.00154
in acetonitrile, 283.15 K	0.00169
in acetonitrile, 285.65 K	0.00188
in acetonitrile, 288.15 K	0.00208
in acetonitrile, 290.65 K	0.00229
in acetonitrile, 293.15 K	0.00252
in acetonitrile, 295.65 K	0.00277
in acetonitrile, 298.15 K	0.00303
in acetonitrile, 300.65 K	0.00332
in acetonitrile, 303.15 K	0.00362
in acetonitrile, 305.65 K	0.00395
in acetonitrile, 308.15 K	0.00431
in acetonitrile, 310.65 K	0.00468
in acetonitrile, 313.15 K	0.0051
in ethanol, 278.15 K	0.00994
in ethanol, 280.65 K	0.0109
in ethanol, 283.15 K	0.0118
in ethanol, 285.65 K	0.0129
in ethanol, 288.15 K	0.014
in ethanol, 290.65 K	0.0151
in ethanol, 293.15 K	0.0164
in ethanol, 295.65 K	0.0177
in ethanol, 298.15 K	0.0191
in ethanol, 300.65 K	0.0205
in ethanol, 303.15 K	0.0221
in ethanol, 305.65 K	0.0238
in ethanol, 308.15 K	0.0255
in ethanol, 310.65 K	0.0273
in ethanol, 313.15 K	0.0293
in ethyl acetate, 278.15 K	0.0125
in ethyl acetate, 280.65 K	0.0136
in ethyl acetate, 283.15 K	0.0149
in ethyl acetate, 285.65 K	0.0161
in ethyl acetate, 288.15 K	0.0176
in ethyl acetate, 290.65 K	0.0191
in ethyl acetate, 293.15 K	0.0206
in ethyl acetate, 295.65 K	0.0222
in ethyl acetate, 298.15 K	0.0241
in ethyl acetate, 300.65 K	0.0259
in ethyl acetate, 303.15 K	0.0278
in ethyl acetate, 308.15 K	0.0321
in ethyl acetate, 310.65 K	0.0343
in ethyl acetate, 313.15 K	0.0368
in ethylbenzene, 278.15 K	0.00011
in ethylbenzene, 280.65 K	0.00013
in ethylbenzene, 283.15 K	0.000149
in ethylbenzene, 285.65 K	0.000172
in ethylbenzene, 288.15 K	0.000196
in ethylbenzene, 290.65 K	0.000224
in ethylbenzene, 293.15 K	0.000255
in ethylbenzene, 295.65 K	0.00029
in ethylbenzene, 298.15 K	0.000326
in ethylbenzene, 300.65 K	0.000371
in ethylbenzene, 303.15 K	0.000418
in ethylbenzene, 305.65 K	0.000472
in ethylbenzene, 308.15 K	0.000528
in ethylbenzene, 310.65 K	0.000594
in ethylbenzene, 313.15 K	0.000664
in isopropanol, 278.15 K	0.00925
in isopropanol, 280.65 K	0.0101
in isopropanol, 283.15 K	0.0111
in isopropanol, 285.65 K	0.012
in isopropanol, 288.15 K	0.0131
in isopropanol, 290.65 K	0.0143
in isopropanol, 293.15 K	0.0155
in isopropanol, 295.65 K	0.0167
in isopropanol, 298.15 K	0.0181
in isopropanol, 300.65 K	0.0195
in isopropanol, 303.15 K	0.0211
in isopropanol, 305.65 K	0.0227
in isopropanol, 308.15 K	0.0244
in isopropanol, 310.65 K	0.0262
in isopropanol, 313.15 K	0.0282
in n-butanol, 278.15 K	0.00768
in n-butanol, 280.65 K	0.0084
in n-butanol, 283.15 K	0.00925
in n-butanol, 285.65 K	0.0102
in n-butanol, 288.15 K	0.0111
in n-butanol, 290.65 K	0.0121
in n-butanol, 293.15 K	0.0132
in n-butanol, 295.65 K	0.0144
in n-butanol, 298.15 K	0.0157
in n-butanol, 300.65 K	0.017
in n-butanol, 303.15 K	0.0184
in n-butanol, 305.65 K	0.0199
in n-butanol, 308.15 K	0.0215
in n-butanol, 310.65 K	0.0232
in n-butanol, 313.15 K	0.025
in n-propanol, 278.15 K	0.00869
in n-propanol, 280.65 K	0.0095
in n-propanol, 283.15 K	0.0103
in n-propanol, 285.65 K	0.0113
in n-propanol, 288.15 K	0.0123
in n-propanol, 290.65 K	0.0134
in n-propanol, 293.15 K	0.0144
in n-propanol, 295.65 K	0.0157
in n-propanol, 298.15 K	0.017
in n-propanol, 300.65 K	0.0184
in n-propanol, 303.15 K	0.0198
in n-propanol, 305.65 K	0.0214
in n-propanol, 308.15 K	0.023
in n-propanol, 310.65 K	0.0248
in n-propanol, 313.15 K	0.0266
in toluene, 278.15 K	0.000136
in toluene, 280.65 K	0.000157
in toluene, 283.15 K	0.00018
in toluene, 285.65 K	0.000204
in toluene, 288.15 K	0.000233
in toluene, 290.65 K	0.000266
in toluene, 293.15 K	0.000299
in toluene, 295.65 K	0.000339
in toluene, 298.15 K	0.000384
in toluene, 300.65 K	0.000427
in toluene, 303.15 K	0.000478
in toluene, 305.65 K	0.000533
in toluene, 308.15 K	0.000597
in toluene, 310.65 K	0.000668
in toluene, 313.15 K	0.000742
